“Also recorded” adds a separate entry of the source.
Columns and labels:
[1] = biological target: T1, Δ^5 -3-ketosteroid isomerase (EC 5.3.3.1) (Comamonas testosteroni, UniProt P00947); experiment: irreversible inactivation of crystalline purified bacterial Δ^5-3-ketosteroid isomerase by acetylenic steroids (Kitz and Wilson kinetic analysis); format: biochemical, Pseudomonas testosteroni; details: 24 hr at 4° vs. 1 mM potassium phosphate buffer, pH 7.0
[2] = biological target: T2, cytosol androgen receptor (prostate androgen binding protein) (Rattus norvegicus, UniProt P15207); experiment: inhibition of nuclear uptake of ^3H-dihydrotestosterone in ventral prostate minces (binding to the prostatic androgen receptor)
T2 construct: freshly minced ventral prostate tissue obtained from rats castrated 24 hours before sacrifice; from tissue; host or cells: ventral prostate minces of castrated rats
T2 sequence (P15207 1-902): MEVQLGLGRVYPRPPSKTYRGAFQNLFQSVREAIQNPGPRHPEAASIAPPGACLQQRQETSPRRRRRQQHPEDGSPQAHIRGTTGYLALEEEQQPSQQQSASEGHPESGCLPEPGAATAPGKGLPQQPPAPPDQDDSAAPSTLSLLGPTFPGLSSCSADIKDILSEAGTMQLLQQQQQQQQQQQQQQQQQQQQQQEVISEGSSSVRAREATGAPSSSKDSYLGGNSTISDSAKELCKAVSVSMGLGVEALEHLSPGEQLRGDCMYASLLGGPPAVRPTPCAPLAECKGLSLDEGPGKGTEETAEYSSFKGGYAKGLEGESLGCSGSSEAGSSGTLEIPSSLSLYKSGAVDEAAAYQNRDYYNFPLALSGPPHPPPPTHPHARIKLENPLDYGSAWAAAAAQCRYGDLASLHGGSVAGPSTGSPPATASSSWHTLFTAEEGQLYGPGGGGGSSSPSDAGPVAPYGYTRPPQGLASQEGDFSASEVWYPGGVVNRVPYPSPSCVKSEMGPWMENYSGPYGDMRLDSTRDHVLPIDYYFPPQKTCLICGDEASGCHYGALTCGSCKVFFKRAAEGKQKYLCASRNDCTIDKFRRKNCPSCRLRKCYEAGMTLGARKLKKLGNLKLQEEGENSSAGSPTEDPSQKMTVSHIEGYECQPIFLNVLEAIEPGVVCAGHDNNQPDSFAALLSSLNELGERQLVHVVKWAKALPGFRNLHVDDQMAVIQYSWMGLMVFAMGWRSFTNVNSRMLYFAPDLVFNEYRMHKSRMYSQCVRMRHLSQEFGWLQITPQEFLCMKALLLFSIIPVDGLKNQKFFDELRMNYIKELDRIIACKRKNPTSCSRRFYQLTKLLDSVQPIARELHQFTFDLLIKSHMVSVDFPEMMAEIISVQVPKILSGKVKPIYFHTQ
Procedure: The binding to the cytosol androgen receptor was determined by the procedure of Fang (5) with modification. […] The amount of radioactivity in the nuclei is expressed as observed counts per minute per 100 μg DNA.

[3] = biological target: T1, Δ^5 -3-ketosteroid isomerase (EC 5.3.3.1); experiment: irreversible inactivation of crystalline purified bacterial Δ^5-3-ketosteroid isomerase by acetylenic steroids (Kitz and Wilson kinetic analysis); format: biochemical, Pseudomonas testosteroni
Procedure: The inactivation is progressive with time, and half-lives in the range of 150-1320 sec are observed at concentrations of 20-200 μM of the two inhibitors. The enzymatic activities of control vessels which received only equivalent volumes of 1,4-dioxane remained constant at initial activities.
The initial rates of inactivation of the isomerase by (1) and (2) can be analyzed by the method of Kitz and Wilson^8 since very satisfactory pseudo-first-order behavior was observed. It is assumed that [I] (inhibitor) >> [E] (enzyme), that [E.I] (the reversible enzyme-inhibitorcomplex) is at all times in equilibrium with enzyme and inhibitor, and that ^k cat >> ^k inh. The scheme for the formation of EI' (the irreversible enzyme-inhibitor derivative) may then be represented as follows.
If the enzyme-inhibitor solution is diluted extensively prior to assay, the active enzyme (ε) = [E] + [E.I]. Then -d(ε)/dt = k3 [E.I.], and K1 = ([E][I])/[EI]. Thus [formula] where Et = total amount of enzyme in system.
If one defines [formula] Consequently double reciprocal plots of kapp with respect to [I] should be linear, with slopes and intercepts permitting the determination of K1 and k3 where the latter is the overall rate constant for the irreversible inhibition process.
From plots of 1n ε (residual enzymatic activity) vs. time, kapp has been determined at five inhibitor concentrations for both compounds 1 and 2, i.e. estryne and pregnyne. Strict linearity of the semilogarithmic plots has been observed in all cases, over greater than two half-lives. A plot of 1/kapp vs. 1/[I] was linear and gave k3 and K1 (FIG. 1). For compound 1, K1 = 56 μM and k3 = 1.98 × 10^-3 sec^-1, and for compound 2, K1 = 32 μM and k3 = 4.10 × 10^-3 sec^-1.
Studies were performed using crystalline purified bacterial Δ^5 -3-ketosteroid isomerase (from P. testosteroni), under pseudo first order conditions using the kinetic analysis of R. Kitz and I. B. Wilson [J. Biol. Chem., 237, 3245 (1964)].

[4] = tested on: endogenous androgen biosynthesis; experiment: study in intact male rats: weights of sex accessory tissue and other organs; format: in vivo, male Sprague-Dawley rats; details: 7 days; for Adrenal weight (± Sem): intact control 27 ± 2; for Dorsal Lateral Prostate weight (± Sem): intact control 244 ± 12; for Seminal Vesicles weight (± Sem): intact control 394 ± 12; for Ventral Prostate weight (± Sem): intact control 421 ± 15; for Kidney weight (± Sem): intact control 1260 ± 63; for Testis weight (± Sem): intact control 1650 ± 38
Procedure: Studies with intact male Sprague-Dawley rats (300g body weight) are illustrated for compounds (1) and (2).
Similarly, compound (2), […] rats at a dosage of 20mg per kilo for 7 days produced 20% reduction in weight of the ventral prostate and 28% reduction of the dorsal lateral prostate.
The following data illustrates the inhibiting effect of estryne and pregnyne on Δ^5 -3-ketosteroid isomerase (EC 5.3.3.1) as evidenced by a depression of the wet weight of the sex accessory tissue in the mature male rat treated with the estryne and pregnyne.
A. Male rats were used to assess the effect of estryne on endogenous androgen biosynthesis at varying doses (1-20 mg/kg body weight). […] On the eighth day the animals were sacrificed and the ventral prostate, dorsal lateral prostate, seminal vesicles, testes, kidneys, and adrenals were removed and weighed. Samples of each tissue were preserved in 10% buffered formalin for histological examination.
B. Male rats were treated with 19-norpregnyne by a regimen exactly as described for the estryne.

[5] = 20mg per kilo per day, i.p. in propylene glycol

T1 sequence (P00947 whole entry, stated change not applied): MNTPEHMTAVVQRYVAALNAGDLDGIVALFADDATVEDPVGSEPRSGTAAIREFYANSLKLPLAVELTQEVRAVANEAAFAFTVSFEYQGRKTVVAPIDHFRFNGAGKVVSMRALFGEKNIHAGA

## C[C@]12CC[C@@H]3C(=O)CCC(=O)CC#CC[C@H]3[C@@H]1CCC2=O [Compound 1, 5,10-secoestr-5-yne-3,10,17-trione]
[1]
  restoration of enzymatic activity by prolonged dialysis: inability to restore enzymatic activity
[2]; 2 × 10^-6 M with ^3H-DHT 2 × 10^-9 M
  inhibition of nuclear uptake of ^3H-dihydrotestosterone: approximately 50%
[2]; rat, 1 h, pH 7.4, steroid 2 × 10^-6 M with ^3H-DHT 2 × 10^-9 M, read-out: nuclear uptake of ^3H-DHT, % Control
  remaining activity at 2 µM: 56%
[2]; steroid 2 × 10^-6 M with ^3H-DHT 2 × 10^-9 M, control 8,471
  CPM/100 DNA (nuclear uptake of ^3H-DHT): 4,771 CPM/100 DNA
[3]; in words
  irreversible inhibition / inactivation of the enzyme: rapid irreversible inhibition; also recorded: rapid irreversible and complete inactivation of the enzyme; also recorded: Powerful irreversible inhibition
[3]; pH 7.0, 20-200 μM of the two inhibitors, in 1,4-dioxane
  half-life of enzyme inactivation: 2.5 to 22 min
[3]; pH 7, pseudo first order conditions, five inhibitor concentrations (10-fold range), read-out: k3, overall rate constant for the irreversible inhibition process
  kinact: 0.00198 s⁻¹
[3]; pseudo first order conditions, five inhibitor concentrations (10-fold range), read-out: K1 (KI), inhibitor dissociation constant
  Ki: 56 µM
[4]; [5]
  reduction in weight of the dorsal lateral prostate: 25-30%
  reduction in weight of the ventral prostate: 28%
[4]; 20mg per kilo per day, i.p. in propylene glycol, listed as estryne
  reduction in weight of the ventral prostate: 25-30%
[4]; 1-20 mg/kg, in words
  dose dependence of the effect on prostatic weight: dose dependent
[4]; in words
  effect on weight of the adrenal: no effect
  effect on weight of the kidney: no effect
  effect on weight of the seminal vesicles: Only a modest decrease
  effect on weight of the testes: no effect
  effect on wet weight of the dorsal-lateral prostate: depresses the wet weight
  effect on wet weight of the ventral prostate: depresses the wet weight
[4]; estryne 1 mg/kg daily i.p.
  Adrenal weight (± Sem): 28 ± 2 mg
  Dorsal Lateral Prostate weight (± Sem): 212 ± 19 mg
  Seminal Vesicles weight (± Sem): 380 ± 18 mg
  Ventral Prostate weight (± Sem): 435 ± 23 mg
  Kidney weight (± Sem): 1320 ± 68 mg
  Testis weight (± Sem): 1650 ± 60 mg
[4]; estryne 5 mg/kg daily i.p.
  Adrenal weight (± Sem): 26 ± 2 mg
  Dorsal Lateral Prostate weight (± Sem): 195 ± 8 mg
  Seminal Vesicles weight (± Sem): 368 ± 16 mg
  Ventral Prostate weight (± Sem): 385 ± 8 mg
  Kidney weight (± Sem): 1090 ± 39 mg
  Testis weight (± Sem): 1590 ± 54 mg
[4]; estryne 10 mg/kg daily i.p.
  Adrenal weight (± Sem): 30 ± 2 mg
  Dorsal Lateral Prostate weight (± Sem): 188 ± 6 mg
  Seminal Vesicles weight (± Sem): 387 ± 14 mg
  Ventral Prostate weight (± Sem): 364 ± 25 mg
  Kidney weight (± Sem): 1150 ± 42 mg
  Testis weight (± Sem): 1580 ± 59 mg
[4]; estryne 20 mg/kg daily i.p.
  Adrenal weight (± Sem): 30 ± 3 mg
  Dorsal Lateral Prostate weight (± Sem): 177 ± 15 mg
  Seminal Vesicles weight (± Sem): 309 ± 23 mg
  Ventral Prostate weight (± Sem): 302 ± 28 mg
  Kidney weight (± Sem): 1040 ± 35 mg
  Testis weight (± Sem): 1420 ± 64 mg

Source: patent US4087461A, “Anti-androgenic steroids” (The Johns Hopkins University, priority 1977, dated 1978)
